# Measured values reported in patent publication US20070259879A1, “Piperazine and piperidine biaryl derivatives” (priority 2006, published 2007).
# Test system: HIV-1 pseudotyped virus
# Assay: HIV-1 pseudotyped virus assay (luciferase reporter gene, single cycle of infection)
# Type: cell-based
# Conditions: Human immunodeficiency virus 1, CCR5, 72 h, read-out: Activity (antiviral activity, IC50)
# Source text: In this example are illustrated experimental procedures for determining biological activity, such as antiviral activity. For determining biological activity, an HIV-1 infection assay was used to determine the antiviral potency for compounds of the present invention.
# For determining biological activity, an HIV-1 pseudotyped virus assay was used to determine the respective antiviral potencies of each compound tested in the assay for comparison. The pseudotyped assay scores for a reduction in infection as indicated by decreased signal from the reporter gene encoding a luciferase enzyme (“reporter gene”). The assay employs cell lines expressing CD4 and either of the primary chemokine receptors (CCR5 or CXCR4) that HIV uses as a co-receptor (“target cells”). Pseudotyped virus was prepared by co-transfection of 293T cells with: 1) a plasmid construct carrying the HIV-1 envelope of choice, in combination with 2) a pseudotyped virus backbone construct in which (a) envelope expression has been abrogated due to a frameshift in the envelope sequence, and (b) the reporter gene replaces nef. Expression of HIV-1 envelope on 293T packaging cells results in the production of a pseudotyped virus carrying the reporter gene that is capable of a single cycle of infection.
# The compounds of the present invention being tested for antiviral activity were serially diluted and dose responses determined in duplicate in two separate experiments. The compounds to be tested were added directly to the plated, target cells, followed by the addition of pseudotyped virus described above. The cells were cultured for three days prior harvest. Media and compound were removed, the cell monolayer was washed, lysed by detergent, and then frozen at −80 degrees C. for a minimum of 30 minutes. Following thawing and acclimation to room temperature, luciferase production was quatified by injecting 100 […]I of a substrate (of the enzyme encoded by the reporter gene) into each well followed by detecting the signal (light emitted from the interaction between the enzyme and substrate) after 5 seconds. In the pseudotyped assay, a 50% reduction in signal is significant, and provides the primary cutoff value for assessing antiviral activity (“IC50” is defined as the dilution resulting in a 50% reduction in enzymatic activity as interpolated from a titration curve). Representative compounds according to the present invention, and their antiviral activity, are illustrated in Table 3.
row,Structure (SMILES),IC50 [µM]
1,"C[C@@H]1CN(C(=O)c2ccccc2)CCN1C(=O)C(=O)c1ccc(-c2cnco2)cc1 [Example 101, 1-((R)-4-Benzoyl-2-methyl-piperazin-1-yl)-2-(4-oxazol-5-yl-phenyl)-ethane-1,2-dione]",< 5
2,"Cc1cc(-c2ccc(C(=O)C(=O)N3CCN(C(=O)c4ccccc4)C[C@H]3C)cc2)on1 [Example 102, 1-((R)-4-Benzoyl-2-methyl-piperazin-1-yl)-2-[4-(3-methyl-isoxazol-5-yl)-phenyl]-ethane-1,2-dione]",< 5
3,"C[C@@H]1CN(C(=O)c2ccccc2)CCN1C(=O)C(=O)c1ccc(-c2nccs2)cc1 [Example 103, 1-((R)-4-Benzoyl-2-methyl-piperazin-1-yl)-2-(4-thiazol-2-yl-phenyl)-ethane-1,2-dione]",< 5
4,"Cc1nc(-c2ccc(C(=O)C(=O)N3CCN(C(=O)c4ccccc4)C[C@H]3C)cc2)cs1 [Example 104, 1-((R)-4-Benzoyl-2-methyl-piperazin-1-yl)-2-[4-(2-methyl-thiazol-4-yl)-phenyl]-ethane-1,2-dione]",> 5
5,"C[C@@H]1CN(C(=O)c2ccccc2)CCN1C(=O)C(=O)c1ccc(-c2nnn(C)n2)cc1 [Example 105, 1-((R)-4-Benzoyl-2-methyl-piperazin-1-yl)-2-[4-(2-methyl-2H-tetrazol-5-yl)-phenyl]-ethane-1,2-dione]",< 5
6,"CO/N=C(\c1ccccc1)N1CCN(C(=O)C(=O)c2ccc(-c3cnco3)cc2)[C@H](C)C1 [Example 106, 1-((R)-4-{[Methoxyimino]-phenyl-methyl}-2-methyl-piperazin-1-yl)-2-(4-oxazol-5-yl-phenyl)-ethane-1,2-dione]",< 5
7,"Cc1noc(-c2ccc(S(=O)(=O)N3CCN(C(=O)c4ccccc4)CC3C)s2)n1 (centres unmarked) [Example 107, {3-Methyl-4-[5-(3-methyl-[1,2,4]oxadiazol-5-yl)-thiophene-2-sulfonyl]-piperazin-1-yl}-phenyl-methanone]",> 5
8,"CON(C)C(=O)c1ccc(S(=O)(=O)N2CCN(C(=O)c3ccccc3)CC2C)s1 (centres unmarked) [Example 108, 5-(4-Benzoyl-2-methyl-piperazine-1-sulfonyl)-thiophene-2-carboxylic acid methoxy-methyl-amide]",< 5
9,"CC1CN(C(=O)c2ccccc2)CCN1S(=O)(=O)c1ccc(-n2cncn2)s1 (centres unmarked) [Example 109, [3-Methyl-4-(5-[1,2,4]triazol-1-yl-thiophene-2-sulfonyl)-piperazin-1-yl]-phenyl-methanone]",> 5
10,"CC1CN(C(=O)c2ccccc2)CCN1S(=O)(=O)c1ccc(C(=O)c2ccco2)s1 (centres unmarked) [Example 110, {4-[5-(Furan-2-carbonyl)-thiophene-2-sulfonyl]-3-methyl-piperazin-1-yl}-phenylmethanone]",> 5
11,"CC1CN(C(=O)c2ccccc2)CCN1S(=O)(=O)c1ccc(C(=O)c2cnc[nH]2)s1 (centres unmarked) [Example 111, {4-[5-(3H-Imidazole-4-carbonyl)-thiophene-2-sulfonyl]-3-methyl-piperazin-1-yl}-phenyl-methanone]",> 5
12,"CC1CN(C(=O)c2ccccc2)CCN1S(=O)(=O)c1ccc(C(=O)c2ccon2)s1 (centres unmarked) [Example 112, {4-[5-(Isoxazole-3-carbonyl)-thiophene-2-sulfonyl]-3-methyl-piperazin-1-yl}-phenyl-methanone]",> 5
13,"CC1CN(C(=O)c2ccccc2)CCN1S(=O)(=O)c1cccc(-n2ccnn2)c1 (centres unmarked) [Example 113, [3-Methyl-4-(3-[1,2,3]triazol-1-yl-benzenesulfonyl)-piperazin-1-yl]-phenyl-methanone]",> 5
14,"CC1CN(C(=O)c2ccccc2)CCN1S(=O)(=O)c1cccc(-n2cncn2)c1 (centres unmarked) [Example 114, [3-Methyl-4-(3-[1,2,4]triazol-1-yl-benzenesulfonyl)-piperazin-1-yl]-phenyl-methanone]",> 5
15,"CC1CN(C(=O)c2ccccc2)CCN1S(=O)(=O)c1cccc(-n2cccn2)c1 (centres unmarked) [Example 115, [3-Methyl-4-(3-pyrazol-1-yl-benzenesulfonyl)-piperazin-1-yl]-phenyl-methanone]",> 5
16,"CC1CN(C(=O)c2ccccc2)CCN1S(=O)(=O)c1ccc(-n2ccnn2)cc1 (centres unmarked) [Example 116, [3-Methyl-4-(4-[1,2,3]triazol-1-yl-benzenesulfonyl)-piperazin-1-yl]-phenyl-methanone]",> 5

row,Structure (SMILES),IC50 [µM]
1,"CC1CN(C(=O)c2ccccc2)CCN1S(=O)(=O)c1ccc(-n2nccn2)cc1 (centres unmarked) [Example 117, [3-methyl-4-(4-[1,2,3]triazol-2-yl-benzenesulfonyl)-piperazin-1-yl]-phenyl-methanone]",> 5
2,"CC1CN(C(=O)c2ccccc2)CCN1S(=O)(=O)c1ccc(-n2cncn2)cc1 (centres unmarked) [Example 118, [3-Methyl-4-(4-[1,2,4]triazol-1-yl-benzenesulfonyl)-piperazin-1-yl]-phenyl-methanone]",> 5
3,"CC1CN(C(=O)c2ccccc2)CCN1S(=O)(=O)c1ccc(-n2cccn2)cc1 (centres unmarked) [Example 119, [3-Methyl-4-(4-pyrazol-1-yl-benzenesulfonyl)-piperazin-1-yl]-phenyl-methanone]",> 5
4,"C[C@@H]1CN(C(=O)c2ccccc2)CCN1S(=O)(=O)c1ccc(-c2c[nH]nn2)cc1 [Example 120, {(R)-3-Methyl-4-[4-(1H-[1,2,3]triazol-4-yl)-benzenesulfonyl]-piperazin-1-yl)-phenyl-methanone]",< 5
5,"CC(C)Cn1cc(-c2ccc(S(=O)(=O)N3CCN(C(=O)c4ccccc4)C[C@H]3C)cc2)nn1 [Example 121, {(R)-4-[4-(1-Isobutyl-1H-[1,2,3]triazol-4-yl)-benzenesulfonyl]-3-methyl-piperazin-1-yl}-phenyl-methanone]",> 5
6,"C[C@@H]1CN(C(=O)c2ccccc2)CCN1S(=O)(=O)c1ccc(-c2cn(Cc3ccccc3)nn2)cc1 [Example 122, [(R)-4-[4-(1-Benzyl-1H-[1,2,3]triazol-4-yl)-benzenesulfonyl]-3-methyl-piperazine-1-yl}-phenyl-methanone]",> 5
7,CC(=O)c1ccc(-n2cc(-c3ccc(S(=O)(=O)N4CCN(C(=O)c5ccccc5)C[C@H]4C)cc3)nn2)cc1 [Example 123],> 5
8,"C[C@@H]1CN(C(=O)c2ccccc2)CCN1S(=O)(=O)c1ccc(-c2cc(-c3ccccc3)no2)cc1 [Example 124, {(R)-3-Methyl-4-[4-(3-phenyl-isoxazol-5-yl)-benzenesulfonyl]-piperazin-yl}-phenyl-methanone]",> 5
9,"C[C@@H]1CN(C(=O)c2ccccc2)CCN1S(=O)(=O)c1ccc(-c2c[nH]nn2)s1 [Example 125, {(R)-3-Methyl-4-[5-(1H-[1,2,3]triazol-4-yl)-thiophene-2-sulfonyl]-piperazin-1-yl}-phenyl-methanone]",> 5
10,"C[C@@H]1CN(C(=O)c2ccccc2)CCN1S(=O)(=O)c1ccc(-c2cn(Cc3ccccc3)nn2)s1 [Example 127, {(R)-4-[5-(1-Benzyl-1H-[1,2,3]triazol-4-yl)-thiophene-2-sulfonyl]-3-methyl-piperazin-1-yl}-phenyl-methanone]",> 5
11,CC(=O)c1ccc(-n2cc(-c3ccc(S(=O)(=O)N4CCN(C(=O)c5ccccc5)C[C@H]4C)s3)nn2)cc1 [Example 128],> 5
12,"Cc1c[nH]c(-n2cc(-c3ccc(S(=O)(=O)N4CCN(C(=O)c5ccccc5)C[C@H]4C)s3)nn2)n1 [Example 129, ((R)-3-Methyl-4-{5-[1-(4-methyl-1H-imidazol-2-yl)-1H-[1,2,3]triazol-4-yl]-thiophene-2-sulfonyl}-piperazin-1-yl)-phenyl-methanone]",> 5
13,"CCOC(=O)c1sc(SC)nc1-n1cc(-c2ccc(S(=O)(=O)N3CCN(C(=O)c4ccccc4)C[C@H]3C)s2)nn1 [Example 130, 4-{4-[5-((R)-4-Benzoyl-2-methyl-piperazine-1-sulfonyl)-thiophen-2-yl]-[1,2,3]triazol-1-yl}-2-methylsulfanyl-thiazole-5-carboxylic acid ethyl ester]",> 5
14,"C[C@@H]1CN(C(=O)c2ccccc2)CCN1S(=O)(=O)c1ccc(-c2cc(-c3ccccc3)no2)s1 [Example 131, {(R)-3-Methyl-4-[5-(3-phenyl-sioxazol-5-yl)-thiophene-2-sulfonyl]-piperazin-1-yl}-phenyl-methanone]",> 5
15,"C[C@@H]1CN(C(=O)c2ccccc2)CCN1S(=O)(=O)c1ccc(-c2cc(C(=O)c3ccc(Cl)cc3)no2)s1 [Example 132, ((R)-4-{5-[3-(4-Chloro-benzoyl)-isoxazol-5-yl]-thiophene-2-sulfonyl}-3-methyl-piperazin-1-yl)-phenyl-methanone]",> 5
16,"C[C@@H]1CN(C(=O)c2ccccc2)CCN1S(=O)(=O)c1ccc(-n2cccn2)cc1 [Example 133, [(R)-3-methyl-4-(4-pyrazole-1-yl-benzenesulfonyl)-piperazin-1-yl]-phenyl-methanone]",> 5
